# Reference: patent publication EP4271680B1, “GOLD (I) COMPLEXES WITH FLUORINATED N-HETEROCYCLIC CARBENE LIGANDS AND USE THEREOF AS THERAPEUTIC AGENTS” (priority 2020, dated 2022)
# Like-named read-outs stand apart in the source and are kept apart here.
# Tests used:
# [1] = tested on: amastigotes axéniques de L. infantum; assay: Anti-leishmanial activity on axenic amastigotes of L. infantum (luciferase luminescence)
# [2] = Cytotoxicity by MTT test on Thp1 cell line; type: cell-based, humains; conditions: human
# Procedure: (§1) L'évaluation de la cytotoxicité des complexes selon l'invention par test MTT sur la lignée cellulaire Thp1 (lignée cellulaire de monocytes humains) a été réalisée selon Mosmann avec de légères modifications. En bref, les cellules (0,77.10^5 cellules/ml) dans 200 µL du milieu complet [RPMI 1640 supplémenté avec 10% de sérum de veau fœtal (FCS), 2 mM de L-glutamine et des antibiotiques (100 U/ml) pénicilline et 100 µg/ml de streptomycine)]+ PMA (50 ng/ml) ont été ensemencées dans chaque puits de plaques à 96 puits et incubées à 37°C sous atmosphère humidifiée à 5% de CO2 avec 95% d'air. Après une incubation de 96 h, les plaques ont été lavées 3 fois avec du milieu et 100 µl de milieu ont été ajoutés. Diverses concentrations et contrôles appropriés ont ensuite été ajoutés (100 µl) et les plaques ont été incubées pendant 72 h à 37°C.
# (§2) Chaque puits a ensuite été examiné au microscope pour détecter la formation possible de précipité avant l'aspiration du milieu. Une solution de MTT (0,5 mg/ml dans du RPMI, 100 µl) a ensuite été ajoutée à chaque puits. Les cellules ont été incubées pendant 2 h à 37°C. La solution de MTT a ensuite été éliminée et du DMSO (100 µl) a été ajouté pour dissoudre les cristaux de formazan résultants. Les plaques ont été secouées vigoureusement (300 tr/min) pendant 5 min.
# (§3) L'absorbance a été mesurée à 570 nm avec un spectrophotomètre pour microplaques. Le DMSO a été utilisé comme blanc et la doxorubicine (Sigma Aldrich) comme contrôle positif. Les CC50 ont été calculés par analyse de régression non linéaire traitée sur des courbes dose-réponse, à l'aide du logiciel TableCurve 2D V5.
# lignée cellulaire Thp1 = assay: Cytotoxicity by MTT test on Thp1 cell line; type: cell-based, humains
# Procedure: as §1, §2, §3
# [3] = Tableau 2, CC50 Thp1 / CI50 axenic amastigotes of L. infantum
# [4] = Tableau 2, 72 h incubation, mean of three independent experiments, read-out: Thp1 CC50
# [5] = Tableau 3, separate experiments, mean of three independent experiments, read-out: Thp1 CC50
# [6] = read-out: CC50 sur la lignée cellulaire humaine Thp1
# [7] = Leishmania infantum, read-out: Amastigotes axéniques de L. infantum CI50, Tableau 2, mean of three independent experiments
# [8] = Leishmania infantum, read-out: Amastigotes axéniques de L. infantum CI50, Tableau 3, separate experiments, mean of three independent experiments
# [9] = Tableau 3, separate experiments, CC50 Thp1 / CI50 axenic amastigotes
# [10] = Leishmania infantum, read-out: Amastigotes axéniques de L. infantum CI50
Structure (SMILES),"Indice de sélectivité CC50/IC50 SI [1, 3]","IC50 [1, 10] [µM]",other results
CC(=O)OCC1OC([S][Au-][c]2n(-c3cc(C(F)(F)F)cc(C(F)(F)F)c3)cc[n+]2Cc2ccccc2)C(OC(C)=O)C(OC(C)=O)C1OC(C)=O (centres unmarked) [Complexe 37],"30,63",–,–
CC(=O)OCC1OC([S][Au-][c]2n(-c3cc(C(F)(F)F)cc(C(F)(F)F)c3)cc[n+]2C(C)C)C(OC(C)=O)C(OC(C)=O)C1OC(C)=O (centres unmarked) [Complexe 39],"18,79",–,–
"N=C(N)c1ccc(OCCCCCOc2ccc(C(=N)N)cc2)cc1 [Pentamidine, reference compound]",">4,74",–,"CC50 at 72 h [2, 4]: > 50 µM; CC50 at 72 h [2, 5]: 65.9 ± 7.49 µM; CC50 at 72 h [2, 6]: > 50 µM; IC50 [1, 7]: 10.5 µM; IC50 [1, 8]: 1.36 µM; Indice de sélectivité CC50/IC50 SI ([1]; Tableau 2, CC50 Thp1 / CI50 axenic amastigotes of L. infantum, listed as pentamidine): > 4,74; Indice de sélectivité CC50/IC50 SI [1, 9]: 48.43"
"CSc1ccc(OCc2ncc([N+](=O)[O-])n2C)cc1 [Fexinidazole, reference compound]",">104,41",3.4,"CC50 at 72 h [2, 4]: > 355 µM; CC50 at 72 h [2, 6]: > 355 µM; Indice de sélectivité CC50/IC50 SI ([1]; Tableau 2, CC50 Thp1 / CI50 axenic amastigotes of L. infantum, listed as fexinidazole): > 104,41"
"C[C@@H]1[C@H](O)[C@@H](C)/C=C/C=C/C=C/C=C/C=C/C=C/C=C/[C@H](O[C@@H]2O[C@H](C)[C@@H](O)[C@H](N)[C@@H]2O)C[C@@H]2O[C@](O)(C[C@@H](O)C[C@@H](O)[C@H](O)CC[C@@H](O)C[C@@H](O)CC(=O)O[C@H]1C)C[C@H](O)[C@H]2C(=O)O [Amphotéricine B, reference compound]","139,87",–,"CC50 (lignée cellulaire Thp1; [5]): 13.1 µM; CC50 (lignée cellulaire Thp1; [6]): 10.5 µM; IC50 [1, 7]: 0.075 µM; IC50 [1, 8]: 0.06 µM; Indice de sélectivité CC50/IC50 SI [1, 9]: 218,83"
FC(F)(F)Oc1ccc(-n2cc[n+](-c3ccc4ccccc4n3)[c]2[Au-][Cl])cc1 [Complexe 31],"136,42",–,–
"CC(C)[n+]1ccn(-c2ccc(C(F)(F)F)cc2)c1 [compound 15, Bromurede 3-Isopropyl-1-(4-(trifluoromethyl)phenyl)-1H-imidazol-3-ium]",–,> 50,–
"FC(F)(F)c1cc(-n2cc[n+](Cc3ccccc3)c2)cc(C(F)(F)F)c1 [compound 7, Chlorurede 3-Benzyl-1-(3,5-bis(trifluoromethyl)phenyl)-1H-imidazol-3-ium]",–,–,"IC50 ([1]; read-out: Amastigotes axéniques de L. infantum CI50, Tableau 2, mean of three independent experiments): > 50 µM"
CC(C)[n+]1ccn(-c2cc(C(F)(F)F)cc(C(F)(F)F)c2)[c]1[Au-][Cl] [Complexe 27],"119,72",–,–
CC(C)[n+]1ccn(-c2ccc(OC(F)(F)F)cc2)[c]1[Au-][Cl] [Complexe 26],"118,53",–,–
"FC(F)(F)Oc1ccc(-n2cc[n+](-c3ccc4ccccc4n3)c2)cc1 [compound 16, Chlorurede 3-(Quinolin-2-yl)-1-(4-(trifluoromethoxy)phenyl)-1H-imidazol-3-ium]",–,> 50,–
FC(F)(F)c1cc(-n2cc[n+](Cc3ccccc3)[c]2[Au-][Cl])cc(C(F)(F)F)c1 [Complexe 22],"47,09",–,–
FC(F)(F)c1ccc(-n2cc[n+](-c3ccc4ccccc4n3)c2)cc1 [compound 20],–,> 50,–
CC(=O)OCC1OC([S][Au-][c]2n(-c3cccc(OC(F)(F)F)c3)cc[n+]2Cc2ccccc2)C(OC(C)=O)C(OC(C)=O)C1OC(C)=O (centres unmarked) [Complexe 38],"23,15",–,–
FC(F)(F)c1ccc(-n2cc[n+](-c3ccc4ccccc4n3)[c]2[Au-][Cl])cc1 [Complexe 35],"130,05",–,–
CC(C)[n+]1ccn(-c2ccc(F)cc2)[c]1[Au-][Cl] [Complexe 29],"178,50",–,–
"Fc1ccc(-n2cc[n+](-c3ccc4ccccc4n3)c2)cc1 [compound 19, Chlorurede 1-(4-Fluorophenyl)-3-(quinolin-2-yl)-1H-imidazol-3-ium]",–,> 50,–
CC(=O)OCC1OC([S][Au-][c]2n(-c3ccc(OC(F)(F)F)cc3)cc[n+]2Cc2ccccc2)C(OC(C)=O)C(OC(C)=O)C1OC(C)=O (centres unmarked) [Complexe 36],"53,92",–,–

Structure (SMILES),"Indice de sélectivité CC50/IC50 SI [1, 3]","IC50 [1, 10] [µM]",other results
Fc1ccc(-n2cc[n+](-c3ccc4ccccc4n3)[c]2[Au-][Cl])cc1 [Complexe 34],"474,17",–,–
"CC(C)[n+]1ccn(-c2ccc(F)cc2)c1 [compound 14, Bromurede 1-(4-Fluorophényl)-3-isopropyl-1H-imidazol-3-ium]",–,> 50,–
CC(C)[n+]1ccn(-c2cccc(OC(F)(F)F)c2)[c]1[Au-][Cl] [Complexe 28],178.52,–,–
"CCCCCCCCCCCCCCCCOP(=O)([O-])OCC[N+](C)(C)C [Miltéfosine, reference compound]","49,32",–,"CC50 (lignée cellulaire Thp1; [5]): 35 µM; CC50 (lignée cellulaire Thp1; [6]): 35 µM; IC50 [1, 7]: 0.71 µM; IC50 [1, 8]: 0.46 µM; Indice de sélectivité CC50/IC50 SI ([1]; Tableau 2, CC50 Thp1 / CI50 axenic amastigotes of L. infantum, listed as miltéfosine): 53,06; Indice de sélectivité CC50/IC50 SI [1, 9]: 76,13"
FC(F)(F)Oc1cccc(-n2cc[n+](-c3ccc4ccccc4n3)[c]2[Au-][Cl])c1 [Complexe 33],"129,70",–,–
"CC(C)[n+]1ccn(-c2cccc(OC(F)(F)F)c2)c1 [compound 13, Bromurede 3-Isopropyl-1-(3-(trifluorométhoxy)phényl)-1H-imidazol-3-ium]",–,> 50,–
"FC(F)(F)Oc1cccc(-n2cc[n+](Cc3ccccc3)c2)c1 [compound 8, Chlorurede 3-Benzyl-1-(3-(trifluoromethoxy)phenyl)-1H-imidazol-3-ium chloride]",–,> 50,–
"CC(C)[n+]1ccn(-c2cc(C(F)(F)F)cc(C(F)(F)F)c2)c1 [compound 12, Bromurede 1-(3,5-Bis(trifluorométhyl)phényl)-3-isopropyl-1H-imidazol-3-ium]",–,> 50,–
"FC(F)(F)c1ccc(-n2cc[n+](Cc3ccccc3)c2)cc1 [compound 10, Chlorurede 3-Benzyl-1-(4-(trifluoromethyl)phenyl)-1H-imidazol-3-ium chloride]",–,> 50,–
"FC(F)(F)Oc1ccc(-n2cc[n+](Cc3ccccc3)c2)cc1 [compound 6, Chlorurede 3-Benzyl-1-(4-(trifluorométhoxy)phényl)-1H-imidazol-3-ium]",–,> 50,–
"FC(F)(F)c1cc(-n2cc[n+](-c3ccc4ccccc4n3)c2)cc(C(F)(F)F)c1 [compound 17, Chlorurede 1-(3,5-Bis(trifluoromethyl)phenyl)-3-(quinolin-2-yl)-1H-imidazol-3-ium]","3,07",–,"toxicité (in words) (lignée cellulaire Thp1): plutôt toxique; IC50 [1, 7]: 14.5 µM; activité anti-leishmanienne (in words) ([1]; axenic amastigotes of L. infantum): modérément actif"
"FC(F)(F)Oc1cccc(-n2cc[n+](-c3ccc4ccccc4n3)c2)c1 [compound 18, Chlorurede 3-(Quinolin-2-yl)-1-(3-(trifluoromethoxy)phenyl)-1H-imidazol-3-ium]",–,> 50,–
FC(F)(F)Oc1cccc(-n2cc[n+](Cc3ccccc3)[c]2[Au-][Cl])c1 [Complexe 23],"62,55",–,–
COc1cccc2c1C(=O)c1c(O)c3c(c(O)c1C2=O)C[C@@](O)(C(=O)CO)C[C@@H]3O[C@H]1C[C@H](N)[C@H](O)[C@H](C)O1 [Doxorubicine],–,–,"CC50 at 72 h [2, 4]: 0.7 µM; CC50 at 72 h [2, 5]: 0.7 µM"
FC(F)(F)Oc1ccc(-n2cc[n+](Cc3ccccc3)[c]2[Au-][Cl])cc1 [Complexe 21],"67,85",–,–
CC(=O)OCC1OC([S][Au-][c]2n(-c3ccc(F)cc3)cc[n+]2C(C)C)C(OC(C)=O)C(OC(C)=O)C1OC(C)=O (centres unmarked) [Complexe 40],13.43,–,–
"CC(C)[n+]1ccn(-c2ccc(OC(F)(F)F)cc2)c1 [compound 11, Bromurede 3-Isopropyl-1-(4-(trifluorométhoxy)phényl)-1H-imidazol-3-ium]",–,> 50,–
"Fc1ccc(-n2cc[n+](Cc3ccccc3)c2)cc1 [compound 9, Chlorurede 3-Benzyl-1-(4-fluorophenyl)-1H-imidazol-3-ium chloride]",–,> 50,–
